The nature of this data set: Rate of dissolution of acetaminophen and acetaminophen/nanoparticle mixtures in DIW by UV/Vis absorbance at 243 nm. In kind it is physicochemical. Conditions: 0.013 g in 1000 mL DIW. As to the method:
The following procedure (similar to USP30-NF 25, Mar. 17, 2008) was used to measure the rate and intensity of dissolution of acetaminophen and acetaminophen/nanoparticle mixtures in Millipore H2O (i.e., DIW).
Three samples of acetaminophen were weighed out. One sample was used as a control sample (Comparative K). A pre-determined amount of surface modified nanoparticles were added to each of the other samples. Sample 14 was combined with 1 weight percent nanoparticles (0.013 g) and sample 15 was combined with 0.5 weight percent nanoparticles (0.0065 g). Each blended sample was prepared by adding the nanoparticles to the acetaminophen. […]
Each blended sample was then measured separately by adding to different glass beakers, each of which contained 1000 mL of DIW and a magnetic stir-bar. […] 0.013 g of the blended samples were measured out and added to the stirred DIW.
While the acetaminophen was being dissolved in the DIW, 1.5 mL samples of the DIW and acetaminophen mixtures were removed every two minutes by pipette. The UV/Vis spectra of the samples were immediately measured using a UV/Vis spectrophotometer (obtained from PerkinElmer, Waltham, Mass., under the trade designation “LAMBDA 35 UV/VIS SPECTROPHOTOMETER), specifically focusing on the 243 nm absorbance.
This was determined to be the final measured value needed for subsequent experiments. […]

`CC(=O)Nc1ccc(O)cc1` [Comparative K, acetaminophen]: the “absorbance intensity at 243 nm (final measured value)” value (stirred, plateau value) is “approximately 0.86”. Besides, the Slope (slope between first two time points: change in absorbance at 243 nm/change in time, in seconds) is 0.0029.

(Values after US8951541B2, “Method of modifying dissolution rate of particles by addition of hydrophobic nanoparticles” (3M Innovative Properties Company, priority 2010, dated 2015).)
